Laboratory results taken from patent EP0238178B1, “Novel derivatives of erythromycylamine” (ELI LILLY AND COMPANY, priority 1986, dated 1987).
Converted amounts (≈) assume the structure as drawn.

What was measured:
[1] = tested on: Staphylococcus aureus S13E; test: MIC, standard agar-dilution assay; format: cell-based
[2] = tested on: Staphylococcus aureus X1.1; test: MIC, standard agar-dilution assay; format: cell-based; settings: read-out: MIC
[3] = tested on: Haemophilus influenzae C.L.; test: MIC, standard agar-dilution assay; format: cell-based; settings: Ampicillin-sensitive strain, read-out: MIC
[4] = tested on: Haemophilus influenzae 76; test: MIC, standard agar-dilution assay; format: cell-based; settings: Haemophilus influenzae 76, Ampicillin-resistant strain; read-out: MIC
[5] = tested on: Streptococcus pneumoniae Park I; test: MIC, standard agar-dilution assay; format: cell-based; settings: read-out: MIC
[6] = tested on: Staphylococcus epidermidis 222; test: MIC, standard agar-dilution assay; format: cell-based; settings: read-out: MIC
[7] = tested on: Streptococcus sp. group D 2041; test: MIC, standard agar-dilution assay; format: cell-based; settings: read-out: MIC
[8] = tested on: Staphylococcus aureus X400; test: MIC, standard agar-dilution assay; format: cell-based; settings: Staphylococcus aureus X400, Methicillin-resistant strain, inducibly-resistant to erythromycin; read-out: MIC
Excerpt: (§1) In addition to excellent in vitro activity against erythromycin-sensitive bacteria, several members of this new series have shown in vitro activity against erythromycin-resistant strains. These include strains which are inducibly-resistant to erythromycin (S.. aureus V41 and X400 and S. epidermidis EPI1) and even strains which are constitutively-resistant (S. epidermidis 270).

[9] = tested on: Staphylococcus aureus V41; test: MIC, standard agar-dilution assay; format: cell-based; settings: Staphylococcus aureus V41, Penicillin-resistant strain, inducibly-resistant to erythromycin; read-out: MIC
Excerpt: as §1

[10] = tested on: Streptococcus pyogenes C203; test: MIC, standard agar-dilution assay; format: cell-based; settings: read-out: MIC
[11] = tested on: Streptococcus sp. group D X66; test: MIC, standard agar-dilution assay; format: cell-based; settings: Streptococcus sp. group D X66; read-out: MIC
Streptococcus pneumoniae = test: Experimental bacterial infection in mice, ED50; format: in vivo; settings: Streptococcus pneumoniae, po, two doses, dose protecting 50% of animals, read-out: Oral ED50
Protocol: (§2) The new derivatives of this invention have also shown in vivo antimicrobial activity against experimental bacterial infections. When two doses of test compound were administered to mice in experimental infections, the activity observed was measured as an EDso value [effective dose in mg/kg to protect 50% of the test animals: see Warren Wick, et al., J. Bacteriol. 81, 233-235 (1961)].

Staphylococcus aureus = test: Experimental bacterial infection in mice, ED50; format: in vivo; settings: Staphylococcus aureus, po, two doses, dose protecting 50% of animals, read-out: Oral ED50
Protocol: as §2

Streptococcus pyogenes = test: Experimental bacterial infection in mice, ED50; format: in vivo; settings: Streptococcus pyogenes, po, two doses, dose protecting 50% of animals, read-out: Oral ED50
Protocol: as §2

[12] = tested on: Klebsiella pneumoniae X68; test: MIC, standard agar-dilution assay; format: cell-based; settings: read-out: MIC
Escherichia coli EC14 = test: MIC, standard agar-dilution assay; format: cell-based; settings: read-out: MIC

SMILES	MIC [1]	MIC [2]	MIC [3]	MIC [4]	MIC [5]	MIC [6]	MIC [7]	MIC [8]	MIC [9]	MIC [10]	MIC [11]	ED50 (Streptococcus pneumoniae)	ED50 (Staphylococcus aureus)	ED50 (Streptococcus pyogenes)	MIC [12]	MIC (Escherichia coli EC14)
CCCCCCCCCCN[C@@H]1[C@H](C)[C@@H](O)[C@](C)(O)[C@@H](CC)OC(=O)[C@H](C)[C@@H](O[C@H]2C[C@@](C)(OC)[C@@H](O)[C@H](C)O2)[C@H](C)[C@@H](O[C@@H]2O[C@H](C)C[C@H](N(C)C)[C@H]2O)[C@](C)(O)C[C@H]1C [Compound 9, 9-Deoxo-9-(n-decylamino)erythromycin]	0.5 µg/mL (≈ 0.571 µM)	1 µg/mL (≈ 1.14 µM)	2 µg/mL (≈ 2.29 µM)	1 µg/mL (≈ 1.14 µM)	0.015 µg/mL (≈ 0.0171 µM)	1 µg/mL (≈ 1.14 µM)	2 µg/mL (≈ 2.29 µM)	8 µg/mL (≈ 9.14 µM)	4 µg/mL (≈ 4.57 µM)	0.015 µg/mL (≈ 0.0171 µM)	0.25 µg/mL (≈ 0.286 µM)	> 50 mg/kg	> 50 mg/kg	> 50 mg/kg		
CCCCCCCCCCCCN[C@@H]1[C@H](C)[C@@H](O)[C@](C)(O)[C@@H](CC)OC(=O)[C@H](C)[C@@H](O[C@H]2C[C@@](C)(OC)[C@@H](O)[C@H](C)O2)[C@H](C)[C@@H](O[C@@H]2O[C@H](C)C[C@H](N(C)C)[C@H]2O)[C@](C)(O)C[C@H]1C [Compound 10, 9-Deoxo-9-(n-dodecylamino)erythromycin]	2 µg/mL (≈ 2.21 µM)	4 µg/mL (≈ 4.43 µM)	8 µg/mL (≈ 8.86 µM)	4 µg/mL (≈ 4.43 µM)	0.06 µg/mL (≈ 0.0664 µM)	4 µg/mL (≈ 4.43 µM)	8 µg/mL (≈ 8.86 µM)	8 µg/mL (≈ 8.86 µM)	8 µg/mL (≈ 8.86 µM)	0.5 µg/mL (≈ 0.554 µM)	1 µg/mL (≈ 1.11 µM)	> 50 mg/kg	> 45 mg/kg	> 50 mg/kg		
CC[C@H]1OC(=O)[C@H](C)[C@@H](O[C@H]2C[C@@](C)(OC)[C@@H](O)[C@H](C)O2)[C@H](C)[C@@H](O[C@@H]2O[C@H](C)C[C@H](N(C)C)[C@H]2O)[C@](C)(O)C[C@@H](C)[C@H](NCCC(C)C)[C@H](C)[C@@H](O)[C@]1(C)O [Compound 11, 9-Deoxo-9-[(3-methylbutyl)amino]erythromycin]	0.5 µg/mL (≈ 0.621 µM)	1 µg/mL (≈ 1.24 µM)	1 µg/mL (≈ 1.24 µM)	1 µg/mL (≈ 1.24 µM)	0.03 µg/mL (≈ 0.0373 µM)	0.25 µg/mL (≈ 0.311 µM)	1 µg/mL (≈ 1.24 µM)			0.06 µg/mL (≈ 0.0745 µM)	0.125 µg/mL (≈ 0.155 µM)	10.8 mg/kg	12.5 mg/kg	8.8 mg/kg	128 µg/mL (≈ 159 µM)	128 µg/mL (≈ 159 µM)
CC[C@H]1OC(=O)[C@H](C)[C@@H](O[C@H]2C[C@@](C)(OC)[C@@H](O)[C@H](C)O2)[C@H](C)[C@@H](O[C@@H]2O[C@H](C)C[C@H](N(C)C)[C@H]2O)[C@](C)(O)C[C@@H](C)[C@H](NCC2CCCCCCC2)[C@H](C)[C@@H](O)[C@]1(C)O [Compound 16, 9-Deoxo-9-[(cyclooctylmethyl)amino]erythromycin]	0.06 µg/mL (≈ 0.0698 µM)	0.5 µg/mL (≈ 0.582 µM)	1 µg/mL (≈ 1.16 µM)	1 µg/mL (≈ 1.16 µM)		0.25 µg/mL (≈ 0.291 µM)	1 µg/mL (≈ 1.16 µM)	64 µg/mL (≈ 74.5 µM)	64 µg/mL (≈ 74.5 µM)	< 0.008 µg/mL	< 0.008 µg/mL					64 µg/mL (≈ 74.5 µM)
CC[C@H]1OC(=O)[C@H](C)[C@@H](O[C@H]2C[C@@](C)(OC)[C@@H](O)[C@H](C)O2)[C@H](C)[C@@H](O[C@@H]2O[C@H](C)C[C@H](N(C)C)[C@H]2O)[C@](C)(O)C[C@@H](C)[C@H](NCC(C)(C)CO)[C@H](C)[C@@H](O)[C@]1(C)O [Compound 22, 9-Deoxo-9-[(3-hydroxy-2,2-dimethylpropyl)amino]erythromycin]	1 µg/mL (≈ 1.22 µM)	1 µg/mL (≈ 1.22 µM)	1 µg/mL (≈ 1.22 µM)	0.25 µg/mL (≈ 0.304 µM)	0.015 µg/mL (≈ 0.0183 µM)	1 µg/mL (≈ 1.22 µM)	4 µg/mL (≈ 4.87 µM)			0.03 µg/mL (≈ 0.0365 µM)	0.25 µg/mL (≈ 0.304 µM)	46.1 mg/kg	> 50 mg/kg	19.8 mg/kg	64 µg/mL (≈ 77.9 µM)	32 µg/mL (≈ 39 µM)
CC[C@H]1OC(=O)[C@H](C)[C@@H](O[C@H]2C[C@@](C)(OC)[C@@H](O)[C@H](C)O2)[C@H](C)[C@@H](O[C@@H]2O[C@H](C)C[C@H](N(C)C)[C@H]2O)[C@](C)(O)C[C@@H](C)[C@H](NCCOCCOC)[C@H](C)[C@@H](O)[C@]1(C)O [Compound 25, 9-Deoxo-9-[[2-(2-methoxyethoxy)ethyl]amino]erythromycin]	8 µg/mL (≈ 9.56 µM)	1 µg/mL (≈ 1.19 µM)	2 µg/mL (≈ 2.39 µM)	4 µg/mL (≈ 4.78 µM)	0.015 µg/mL (≈ 0.0179 µM)	1 µg/mL (≈ 1.19 µM)	8 µg/mL (≈ 9.56 µM)			0.125 µg/mL (≈ 0.149 µM)	0.25 µg/mL (≈ 0.299 µM)	21.8 mg/kg	23.3 mg/kg	27.1 mg/kg	128 µg/mL (≈ 153 µM)	64 µg/mL (≈ 76.5 µM)
